The results in this text go back to patent US9976141B2, “Compositions and methods for inhibiting gene expression of Hif2alpha” (Arrowhead Madison Inc., priority 2015, dated 2018).

Strand notation (5' to 3'): a small letter for the sugar, then the base; units joined by * are phosphorothioate-linked, units joined directly phosphodiester-linked; [ ] holds rarer units or linkages, { } end groups; capitals alone tell only the bases. [UNA-N] = unlocked nucleic acid (N: the base); [invdT] = inverted (3'-3') thymidine; d = 2'-deoxy (DNA); m = 2'-O-methyl; f = 2'-fluoro

The subject of data set [1] is human (tumor) Hif2α (EPAS1) mRNA. Description: HiF2α RNAi trigger/sunitinib combination study: HiF2α expression in RCC tumors (Table 10A). The class given is in vivo. The conditions noted are these: 4 doses, 3 cycles.
Procedure: Female athymic nude mice were anesthetized with ˜3% isoflourane and placed in the right lateral decubitus position. A small, 0.5-1 cm, longitudinally abdominal incision in the left flank was made. Using a moist cotton swab, the left kidney was lifted out of the peritoneum and gently stabilized. Just before injection, a 1.0 ml syringe was filled with the cell/Matrigel mixture and a 27 gauge needle catheter was attached to the syringe tip. The filled syringe was then attached to a syringe pump (Harvard Apparatus, model PHD2000) and primed to remove air. The tip of a 27-gauge needle catheter attached to a syringe was inserted just below the renal capsule near the caudal pole and the tip of the needle was then carefully advanced cranially along the capsule 3-4 mm. […]
In preparation for quantitative PCR, total RNA was isolated from tissue samples homogenized in TriReagent (Molecular Research Center, Cincinnati, Ohio) following the manufacturer's protocol. […] Quantitative PCR was performed by using a 7500 Fast or StepOnePlus Real-Time PCR system (Life Technologies). […]
Tumor growth rates were evaluated by serum SEAP collected at 5-7 days interval during treatment. Tumor weight and volume was determined at necropsy. Gross tumor morphology and H&E histopathology were evaluated.
In data set [2] the test system is A498-SEAP ccRCC orthotopic kidney tumor. Description: HiF2α RNAi trigger/sunitinib combination study: tumor size and SEAP expression (Table 10B). The class given is in vivo, mice. The conditions noted are these: trigger = Duplex AD1884 with polymer 064 (125 μg polymer) iv every 4 weeks, 4 doses, sunitinib oral gavage, 3 cycles.
Data set [3] has as its system human EPAS1 (Hif2α) cDNA in psiCHECK2 (Renilla luciferase/EPAS1 fusion mRNA) in Hep3B cells. Description: Hif2α RNAi trigger EC50 determination, dual-luciferase reporter assay. The conditions noted are these: UNA modified at site 6 or 7, EPAS1-psiCHECK2, same conditions, read-out: EC50 UNAs EC50. It is filed as cell-based. An excerpt:
Candidate sequences were identified by in silico analysis and screened as chemically modified canonical siRNAs in vitro. For screening purposes, the human EPAS1 (Hif2α) cDNA sequence (accession #NM 001430) was synthesized and cloned (DNA 2.0, Menlo Park, Calif.) into a commercially-available reporter-based screening plasmid, psiCHECK2 (Promega, Madison, Wis.) which generated a Renilla luciferase/EPAS1 fusion mRNA. For RNAi trigger efficacy evaluation, Hep3B cells, a human hepatocellular carcinoma line, were plated at 10,000 cells per well in 96-well format. Each of the 187 EPAS1 RNAi triggers, in two subsets, was co-transfected at two concentrations, 1 nM and 0.1 nM, with 25 ng EPAS1-psiCHECK2 plasmid DNA per well and 0.2 μL LipoFectamine 2000 (Life Technologies) per well. Gene knockdown was determined by measuring Renilla luciferase levels normalized to the levels of constitutively-expressed firefly luciferase, also present on the psiCHECK-2 plasmid, using the Dual Luciferase Reporter Assay (Promega, Madison, Wis.) Table 5.
The eight best canonical sequences were further evaluated by determining the EC50 concentration. Each trigger was assessed for knockdown under the same conditions and assays as above, but at 10 different concentrations ranging from 0.00051 nM to 10 nM. EC50 were determined using GraphPad Prism software. Each of the top five canonical sequences were modified to contain UNA at sites 6 and 7. These triggers, along with their parent canonical sequences, were evaluated side-by-side for EC50 concentration determination using the same conditions and assays as above, Table 6.
For orientation: A reporter such as luciferase makes a cellular process visible.

Turning to `CCN(CC)CCNC(=O)c1c(C)[nH]c(/C=C2\C(=O)Nc3ccc(F)cc32)c1C` [sunitinib, Sunitinib], in data set [1] (DPC 125 μg polymer iv every 4 weeks, sunitinib oral gavage 5 days/week 2 weeks on, 2 weeks off), the “Relative HiF2α expression levels decreased” value came to 11.4%. Further, in data set [1] (trigger = Duplex AD1884 with polymer 064 (125 μg polymer) iv every 4 weeks, sunitinib oral gavage 5 days/week, 2 weeks on/2 off), the “HiF2α expression, Relative expression” value is 0.886. For the same compound, in data set [2] (at necropsy), the Tumor volume was 2113.5 ± 368 mm3 and the Tumor weight is on record as 2385.7 ± 845 mg. Also, the “Fold increase in SEAP” value in data set [2] (serum SEAP, overall) is given as 18.1 ± 9.8.

As usually defined, the EC50 is the concentration giving half of the maximal effect. Regarding “AD00990: Hif2α RNAi trigger, XD-02404 sequence modified to contain UNA at site 6 (antisense dTfAmAfAmU[UNA-C]mGfUmUfAmCfGmUfUmGfAmCfAmGdT*dT; sense dTfGmAfGmGfAmGfCmUfUmGfUmGfUmGfUmUfCmGdT*dT)”, the concentration for a half-maximal effect (EC50) in data set [3] amounted to 0.153 nM.

As to “AD00988: Hif2α RNAi trigger, XD-02335 sequence modified to contain UNA at site 6 (antisense dTfGmUfAmA[UNA-A]mAfCmAfAmUfUmGfUmGfUmAfCmUdT*dT; sense fAmGfUmAfCmAfCmAfAmUfUmGfUmUfUmUfAmCfA[invdT])”, in data set [3], the EC50 turned out to be 0.841 nM.
